US11890266B2 (University of Canberra, priority 2016, dated 2024)

What was measured:
[1] = system: form-deprivation myopia (FDM) in chick eyes fitted with a translucent diffuser; assay: Form-deprivation myopia (FDM) induced by translucent diffuser, five day treatment; axial length and refraction; format: in vivo, White Cockerel chickens; conditions: Example 15, five days; for effect of intravitreal injection versus topical administration on refraction and axial elongation: daily administration; for axial elongation in comparison with animals fitted with a translucent diffuser only (G2) / myopic shift in refraction in comparison with animals fitted with a translucent diffuser only (G2): ADTN 1 mM, atropine 2 mM, pirenzepine 16 mM
Experimental: For the drug treatments, the compositions were administered under light isoflurane anesthesia using intravitreal injection or topical administration.
Intravitreal injection was performed as follows: Using a 30 gauge needle attached to a Hamilton syringe, 10 μL (0.01 mL) of the test composition was injected into the vitreous chamber of the eye once daily.
Topical administration was performed as follows: Two drops of 40 μL (two drops of 0.04 mL, or 0.08 mL total) of the test composition was applied to the corneal surface of the eye using an eye drop dispenser. Drops were applied to the chicks twice daily.
To determine changes in the rate of eye growth and the development of myopia, changes in axial length and refraction were assessed. Myopia is associated with excessive elongation of the eye in the axial direction relative to normal growth rates. Such excessive axial elongation leads to a relative myopic change in refraction. Axial length and refraction were measured using A-scan ultrasonography (Biometer AL-100; Tomey Corporation, Nagoya, Japan) and automated infrared photo-retinoscopy respectively. Statistical analysis of changes in both refraction and axial length between groups involved a one-way ANOVA test followed by a Student's T-test with Bonferroni correction. All data are presented as the mean±the […] of the mean (SEM). […]
70 male White Cockerel chickens were randomly assigned to one of 14 treatment groups as defined below (n=5 per group) and were treated for a five day period. G1-G14 represent the labelling system used in FIGS. 11 and 12.
ADTN compositions were prepared by dissolving ADTN in a solution containing 0.1% ascorbic acid in 1×PBS to a final concentration of 1 mM (0.03% w/v), and adjusting the pH to 7. Atropine and pirenzepine compositions were prepared by dissolving atropine (in the form of atropine sulfate salt monohydrate) or pirenzepine (in the form of pirenzepine dihydrochloride) in distilled water to a final concentration of 2 mM (0.14% w/v) and 16 mM (0.7% w/v), respectively, and adjusting the pH to 7.
Administration of test compositions and measurement of ocular parameters was performed in accordance with that described in Example 4.

[2] = system: form-deprivation myopia (FDM) in chick eyes fitted with a translucent diffuser; assay: Safety and efficacy of topical levodopa in form-deprivation myopia over a four week period; format: in vivo, White Cockerel chickens; conditions: topical 0.3% w/v (15 mM) levodopa composition of Example 1, twice daily, four weeks
Experimental: Male White Cockerel chickens were kept under normal laboratory light (500 lux, fluorescent lights) on a 12:12 hour light:dark cycle with lights on at 9:30 am and off at 9:30 pm. In all chicks, left eyes were treated experimentally while right eyes remained untreated to serve as a contralateral control. Chicks were randomly assigned to one of four groups (n=6 for each group) and treated over the four week period under the following experimental conditions: • 1. […] Form-deprivation myopia (FDM): Chicks were fitted with a translucent diffuser over their left eye to induce FDM, receiving no further treatment • 3.
Administration of the test compositions was performed in accordance with that described in Example 4.
To determine changes in the rate of eye growth and the development of myopia, axial length and refraction were measured using A-scan ultrasonography (Biometer AL-100; Tomey Corporation, Nagoya, Japan) and automated infrared photo-retinoscopy, respectively. Ocular measurements (axial length and refraction) were made on day one (prior to the commencement of experimentation) and every seven days for four weeks.
A multivariate analysis of variance (MANOVA) with repeated measures design was used to compare the effect of the different treatment regimens over time.

[3] = daily topical administration, levodopa 0.03% w/v in combinations

| SMILES | effect of intravitreal injection versus topical administration on refraction and axial elongation [1] | axial elongation in comparison with animals fitted with a translucent diffuser only (G2) ([1]; daily intravitreal injection) | myopic shift in refraction in comparison with animals fitted with a translucent diffuser only (G2) ([1]; daily intravitreal injection) | axial elongation in comparison with animals fitted with a translucent diffuser only (G2) [1, 3] | myopic shift in refraction in comparison with animals fitted with a translucent diffuser only (G2) [1, 3] | axial elongation in comparison to diffusers in the absence of levodopa treatment [2] |
| --- | --- | --- | --- | --- | --- | --- |
| NC1CCc2cc(O)c(O)cc2C1 (stereo not shown) [ADTN, 2-amino-6,7-dihydroxy-1,2,3,4-tetrahydronaphthalene] | intravitreal injection having a greater effect than topical administration | decreased axial elongation | significantly inhibited the myopic shift in refraction | decreased axial elongation | significantly inhibited the myopic shift in refraction | – |
| CN1CCN(CC(=O)N2c3ccccc3C(=O)Nc3cccnc32)CC1 [pirenzepine] | greater when intravitreally administered | decreased axial elongation | significantly inhibited myopic shifts in refractive development | decreased axial elongation | significantly inhibited myopic shifts in refractive development | – |
| N[C@@H](Cc1ccc(O)c(O)c1)C(=O)O [levodopa] | – | – | – | – | – | decreased axial elongation |
| CN1[C@@H]2CC[C@H]1C[C@@H](OC(=O)C(CO)c1ccccc1)C2 (stereo partly shown) [atropine] | intravitreal injection having a greater effect than topical administration | decreased axial elongation | significantly inhibited the myopic shift in refraction | decreased axial elongation | significantly inhibited the myopic shift in refraction | – |
